We go through 1 compound from patent US20060009433A1, “Neuroprotective spirostenol pharmaceutical compositions” (priority 2003, published 2006).

Where only a bound is given, the exact number is not on record here.

One data set deals with T1, Aβ1-40 (Homo sapiens, UniProt P05067).
T1 construct: purchased American Peptide Co. (Sunnyvale, Calif.)
Briefly: CPBBA, Aβ1-40. The format is binding. How it is done: At the end of the incubation time, samples were separated by 1.5% agarose (Type I-B) gel electrophoresis and transferred to nitrocellulose membrane (Schleicher & Schuell, Keene, N.H.) in 10×SSC buffer. The membrane was exposed to tritium-sensitive screen and analyzed by phosphoimaging using the Cyclone Storage phosphor system (Packard BioScience, Meridien, Conn.). Image-densitometric analysis was performed using the OptiQuant software (Packard). […] Low molecular weight unincorporated 22i-hydroxycholesterol is separated and eliminated during electrophoresis.

The subject of data set [1] is human NT2 cells. Briefly: Trypan blue dye exclusion assay, NT2 cells. Format: cell-based. Particulars: 25 μM steroid, 72 hours. How it is done:
(§1) Rat PC12 cells were cultured as previously described. Yao et al., Brain Res. 889, 181-190 (2001). Human NT2 precursor (Ntera2/D1 teratocarcinoma) cells were obtained from Stratagene (La Jolla, Calif.) and cultured following the instructions of the supplier. Differentiated human NT2 neurons (NT2N) were obtained after treatment of the NT2 precursor cells with retinoic acid. Andrews, Dev. […] Aβ was dissolved in media and used either in the aggregated (left overnight at 4° C.) or soluble (containing oligomers such as dimers and tetramers) forms examined by electrophoresis as previously described. Yao et al., Brain Res. (2001). […] Id. Cell viability was measured using the trypan blue exclusion method as previously described. Id. In brief, for these studies, cells were treated for 72 hours with steroids in the presence or absence of increasing concentrations of Aβ. At the end of the incubation, the cells were washed three times with PBS and incubated for 15 minutes with 0.1% trypan blue stain solution at room temperature. After washing three times with PBS, 0.1 N NaOH was added to the cells and trypan blue staining was quantified using the Victor quantitative detection spectrophotometer (EGG-Wallac, Gaithersburg, Md.) at 450 nm. Cell protein levels were determined in the same samples by the method of Bradford (Bradford, Anal. Biochem., 72, 248-254 (1976)), where coomassie blue staining is detected at 590 nm.
(§2) The results obtained from using MTT assay were further confirmed with the trypan blue dye exclusion assay. […] Levels of viability were measured using the trypan blue assay as described under Materials and Methods. Results are expressed as fold trypan blue stained cells per total cell protein over control untreated cells. Results shown are means±SD (n=6-12).

The subject of data set [2] is differentiated human NT2N neurons. The data set can be described thus: MTT assay, Aβ1-42-induced toxicity on differentiated NT2N neurons. Format: cell-based. Particulars: for protection against Aβ-induced toxicity: 25 μM Aβ1-42, 72 hours.
The nature of data set [3]: CPBBA with NT2 cell protein. The format is binding, human. To be noted: 3 hours at 37° C.; competition with unlabeled compound. Here is the method:
After incubation, samples were separated by 1.0% agarose (Type I-B) gel electrophoresis and transferred to a nitrocellulose membrane (Schleicher & SchueII, Keene, N.H., USA) in 10×saline-sodium citrate (SSC) buffer. The membrane was exposed to a tritium-sensitive screen and analyzed by phosphoimaging using the Cyclone Storage Phosphor System (Packard BioScience, Meridien, Conn., USA). Image-densitometric analyses were performed using the OptiQuant software (Packard). […] Low molecular weight unincorporated 22R-hydroxycholesterol is separated and eliminated during electrophoresis.

Data set [4] deals with differentiated NT2N neuronal cells. The data set can be described thus: MTT assay, viability of differentiated NT2N neuronal cells. The format is cell-based, human. The source says:
During CNS development in vivo, cells actively participate in two opposing processes: proliferation and death (Ross, Trends Neurosci., 19, 62 (1996)). In NT2 cells, early programmed cell death (apoptosis) has been associated with the induction of differentiation by RA, it occurs mainly in undifferentiated cells, and it coincides with first detection of the neuronal phenotye (NT2N), i.e., significant apoptotic cell death could be quantified during the third and fourth days of the RA treatment using annexin V labeling as a marker of apoptosis (Guillemain et al., J. Neurosci. Res., 71, 38 (2003)). […] Thus, apoptotic cell death of undifferentiated NT2 cells also occurred during 22R-hydroxycholesterol-induced differentiation.

Data set [5] relates to NT2 cells. Briefly: NT2 cell differentiation, phase-contrast morphology. Format: cell-based, human. Particulars: 25 μM; 3, 6 and 12 days (comparators 6 days).
The next data set deals with rat PC12 cells. Briefly: Trypan blue dye exclusion assay, PC12 cells (Example I). The format is cell-based. To be noted: 100 μM steroid, 72 hours. How it is done: as §1, §2
A further data set has as its system PC12 cells. The data set can be described thus: Cellular ATP levels (ATPLite-M) in Aβ-treated PC12 cells. To be noted: 0.1 and 1.0 μM Aβ. The format is cell-based, rat. Here is the method:
PC12 cells (rat pheochromocytoma neurons) from ATCC (Manassas, Va.) were cultured at 37° C. and 5% CO2 in RPMI 1640 medium devoid of glutamine and supplemented with 10% fetal bovine serum and 5% horse serum. Yao Z, Drieu K and Papadopoulos V., The Gingko biloba extract EGb 761 rescues PC12 neuronal cells from β-amyloid-induced cell death by inhibiting the formation of (3-amyloid-derived diffusible neurotoxic ligands, Brain Res, 889, 181-190 (2001). Cells were seeded in 96-well plates (8×10^4 cells/well). After an overnight period of incubation, increasing concentrations of aggregated Aβ (0.1, 1 and 10 μM) were added to the cells in the presence or absence of the indicated concentrations of the SP compounds to be tested. After 72-hours incubation time various parameters, markers of cell viability, were determined. Mouse MA-10 tumor Leydig cells were maintained at 37° C. in DMEM/Ham's F12 (Biofluids, Rockville, Md.) medium supplemented with 5% heat-inactivated fetal calf serum and 2.5% horse serum in 5% CO2. Cells were plated on 96-well plates at the density of 2.5×10^4 cells/well for overnight. The cells were stimulated with the indicated concentrations of the various SP compounds in 0.2 ml/well serum-free medium for 2 hours. The culture medium was collected and tested for progesterone production by radioimmunoassay.
Cellular ATP concentrations were measured using the ATPLite-M™ luminescence assay (Packard BioSciences Co.). For this assay, cells were cultured on black 96-well ViewPlate™ and the ATP concentrations were measured on a TopCount NXT™ counter (Packard BioSciences Co.) following the recommendations of the manufacturer.

Data set [6] has as its system human NT2 cells. Briefly: MTT assay, glutamate-induced toxicity in NT2 cells. Format: cell-based. Particulars: 5 mM glutamate, three days; 1 to 50 μM compound; data not shown.
Data set [7] has as its system NT2 cells. Briefly: LDH and MTT assays, NT2 cell viability.
Data set [8] concerns PC12 cells, MDA-MB-231 cells or the human glioma cell line U87. The data set can be described thus: Differentiation in other cell lines. The format is cell-based. Particulars: data not shown.

T1 sequence (P05067 672-711): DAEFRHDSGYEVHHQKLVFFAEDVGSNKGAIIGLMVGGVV

With `CC(C)CC[C@@H](O)[C@@H](C)[C@H]1CC[C@H]2[C@@H]3CC=C4C[C@@H](O)CC[C@]4(C)[C@H]3CC[C@]12C` [SP222, 22R-hydroxycholesterol], at Aβ1-40, the “binding to Aβ1-40” value is “barely interacts”. In addition, the “rescue from Aβ1-42-induced cell death” value in the data set with human NT2 cells [1] and in the data set with rat PC12 cells was “rescued” in each case. Moreover, the “rescue from Aβ25-35-induced cell death” value in the data set on human NT2 cells [1] and with rat PC12 cells was “Neither 22R-hydroxycholesterol nor DHEA could rescue” in each case. Moreover, the results for the “protection against Aβ-induced toxicity” value in data set [2] (1 μM compound) and in [2] (10 μM compound) were 50% and 100%, respectively. In addition, the half-inhibitory concentration (IC50) in data set [2] (Homo sapiens, Neuron, NT2T cells, read-out: IC50 of protection from Aβ-induced toxicity) is 3 µM. In [3], the “radiolabeling of NT2 cell protein with 3H-22R-hydroxycholesterol” value is listed as “decreased in the presence of increasing concentrations of unlabeled 22R-hydroxycholesterol”. The “effect on viability of differentiated NT2N neuronal cells” value in data set [4] was “had no effect”. Also, in the data set on NT2 cells [5], the “effect on NT2 cell morphology (differentiation)” value is listed as “induced morphologic changes”. Moreover, in the data set with PC12 cells, the “reversal of Aβ-induced decrease in ATP levels” value is recorded as “did not block”. In addition, in the data set with human NT2 cells [6], the “protection against glutamate-induced decrease in cell viability” value was “failed to protect the cells”. In addition, in the data set with NT2 cells [7] (LDH and MTT, 25-50 μM, 3-day treatment), the “cytotoxicity at high concentrations” value is given as “cytotoxic”. Further, the “concentration affecting viability of undifferentiated NT2 cells” value in the data set on NT2 cells [7] (MTT) was above 10 µM. In addition, in [8], the “induction of differentiation in PC12, MDA-MB-231 or U87 cells” value is recorded as “such an effect was not found”.
